The text below walks through data of article PMC7371863, “Intracellular interplay between cholecystokinin and leptin signalling for satiety control in rats” (Scientific Reports, 2020).

The test system of one assay is pSTAT3 in C6-ObRb cells. In words: Immunofluorescent staining of pSTAT3 in C6-ObRb cells. In kind it is cell-based, rat C6 cells, mouse ObRb. Conditions: for cytosolic pSTAT3 signal with kinase inhibitor: AG490 1 µM or LY294002 50 µM. The method, then:
(§1) Rat C6 glioma cells were cultured in Dulbecco’s Modified Eagle Medium/F12 (DMEM/F12) supplemented with 10% FBS, sodium bicarbonate (1.2 g/L), and 1% penicillin/streptomycin antibiotics at 37 °C in 5% CO2. The full-length mouse leptin receptor (ObRb) in pcDNA3.1 vector was kindly provided by Dr. Christian Bjørbaek (BIDMC, Harvard Medical School, Boston, MA, USA) and transfected using Lipofectamine 2000. Subsequently, the cells were cultured in medium containing 500 μg/mL G418 for cell selection.
[…] Cells were treatment with AG490 (1 μM) or LY294002 (50 μM) 15 min prior to the leptin stimulation until the time of fixation. These cells were fixed in 4% phosphate-buffered paraformaldehyde for 15 min and washed three times with PBS(−). The fixed samples were then incubated for 2 h at room temperature in 10% donkey serum dissolved in 0.1% Triton-X PBS(−). Next, samples were incubated with 1:100 affinity-purified rabbit phospho-STAT3 (pTyr^705) dissolved in 5% donkey serum PBS(−) for 24 h at 4 °C. After three 20-min PBS(−) rinses, samples were incubated in 1:400 Cy3-conjugated donkey anti-rabbit IgG for 2 h at room temperature. Finally, samples were rinsed with PBS(−) (four 15-min rinses on an orbital shaker) and mounted using Vectashield containing 4′,6-diamidino-2-phenylindole (DAPI).
(§2) Images were acquired using a confocal laser-scanning microscope (Olympus FV1000 or Nikon A1R MP plus) with a laser diode (405 nm), argon laser (488 nm), and helium neon laser ([…]). The nuclear immunofluorescent intensity (8-bit depth) was analyzed using Photoshop CS 6 software.

A further assay has as its system wild-type C6 cells. In words: Ca2+ imaging (Fura-2), leptin and CCK-8s signalling interaction in wild-type C6 cells. It counts as cell-based, rat. The method, then:
as §1
C6 cells plated on 35 mm plastic dishes were gently rinsed with buffered salt solution (BSS) consisting of 130 mM NaCl, 5.4 mM KCl, 2 mM CaCl2, 1 mM MgCl2, 5.5 mM D-glucose, and 10 mM HEPES/NaOH (pH 7.4), and incubated in BSS supplemented with 6 µM Fura-2 AM (Dojindo Laboratories, Kumamoto, Japan) for 30 min in a CO2 incubator. Prior to photometry, the cells were rinsed again with BSS, incubated at 37°C for 15 min, and then continuously perfused with BSS at 34°C at a flow rate of 3 mL/min. Fluorescence images were obtained using an upright microscope (Axioplan2; Carl Zeiss, Thornwood, NY, USA) with a water-immersion objective (Achroplan×20 NA0.5w; Carl Zeiss). The wavelength of the excitation UV light (340 nm or 380 nm pulse; 250 msec) was switched using a filter wheel (Lambda 10-2; Sutter Instruments, Novato, CA, USA). The UV light was generated by a full spectrum 300W Xenon bulb (Lambda LS; Sutter Instruments), conducted to the microscope through a liquid light guide. The pair of fluorescent images was processed using a band-pass filter (485–515 nm) and exposed to a multiple format cooled CCD camera (CoolSnap-fx; Photometrics, Tucson, AZ, USA) at 6-sec intervals. The filter wheel and the CCD camera were controlled using digital imaging software (MetaFluor ver. 6.2; Japan Molecular Devices, Tokyo, Japan). The background fluorescence was also subtracted using the software.
During image acquisition, leptin (PeproTech, Rocky Hill, NJ, USA), CCK-4 (Peptide Institute, Inc., Osaka, Japan), CCK-8s (Sigma-Aldrich, St. Louis, MO, USA), AG490 (Calbiochem, San Diego, CA), LY294002 (Calbiochem), LY225910 (R&D Systems, Minneapolis, MN, USA), LGM (LKT Laboratories Inc., St. Paul, MN, USA), and ATP (Sigma-Aldrich) were applied by switching the perfusate. The magnitude of Ca^2+ responses was determined by peak area analysis using Origin 5.0 software (OriginLab, Northampton, MA, USA).

For assay [1], the system named is CCK-2 receptor (C6 cells). In words: Ca2+ imaging (Fura-2), CCK-2 receptor agonist response in C6 cells. In kind it is cell-based, rat. The settings on record: CCK-4 100 nM; n = 35/three dishes; Fura-2, 34°C, BSS pH 7.4. The method, then:
as §1
(§3) C6 cells plated on 35 mm plastic dishes were gently rinsed with buffered salt solution (BSS) consisting of 130 mM NaCl, 5.4 mM KCl, 2 mM CaCl2, 1 mM MgCl2, 5.5 mM D-glucose, and 10 mM HEPES/NaOH (pH 7.4), and incubated in BSS supplemented with 6 µM Fura-2 AM (Dojindo Laboratories, Kumamoto, Japan) for 30 min in a CO2 incubator. Prior to photometry, the cells were rinsed again with BSS, incubated at 37°C for 15 min, and then continuously perfused with BSS at 34°C at a flow rate of 3 mL/min. Fluorescence images were obtained using an upright microscope (Axioplan2; Carl Zeiss, Thornwood, NY, USA) with a water-immersion objective (Achroplan×20 NA0.5w; Carl Zeiss). The wavelength of the excitation UV light (340 nm or 380 nm pulse; 250 msec) was switched using a filter wheel (Lambda 10-2; Sutter Instruments, Novato, CA, USA). […] The background fluorescence was also subtracted using the software. […]

Assay [2] relates to CCK-2 receptor (C6 cells). In words: Ca2+ imaging (Fura-2), CCK-2 antagonism added to LGM in C6 cells. In kind it is cell-based, rat. The settings on record: LY225910 100 nM additional to LGM 100 nM; CCK-8s 10 nM; p < 0.01. The method, then:
as §1, §3

The next assay relates to VMN cells. In words: Ca2+ imaging in rat VMN slices. In kind it is cell-based. The settings on record: LGM 1 µM; leptin 1–1,000 nM; p < 0.01 two-way ANOVA.
Assay [3] deals with c-Fos and pSTAT3 in the ARC. In words: Nuclear c-Fos and pSTAT3 in ARC after i.p. LGM. It counts as in vivo, rat. Conditions: LGM 10 mg/kg i.p., 3 h, after RF, versus saline. The method, then:
(§4) To investigate the cellular consequences underlying the above behavioral responses, the different groups of rats that received RF were killed 3-h after the LGM (10 mg/kg) or saline injections. Subsequently, nuclear pSTAT3-ir and c-Fos-ir were visualized in the […] by immunohistochemistry. An astrocyte marker (glial fibrillary acidic protein, GFAP) was counterstained as a landmark of ARC because ARC is the astrocyte-rich ventral neuronal nucleus (Fig. 8A). […]
as §2
(§5) Male rats aged 2–3 months were individually housed in originally designed cylindrical chambers (30 cm ϕ, H30 cm). […] Because the bottom of the pellet server was placed 22 cm above the floor, purposeful food access behavior, but not general locomotor activities, was counted using this system. The ON/OFF signals from the sensor were fed into a laptop computer through a photo-coupler isolated digital I/O card (Contec Inc. PIO-16/16L) and automatically counted at 3-min intervals by software written by M.I.

The subject of another assay is CCK-1 receptor. In words: Food access frequency after i.p. LGM following 1-h restricted feeding. In kind it is in vivo, rat. Conditions: LGM 10 mg/kg i.p., 3 h before re-feeding; n = 5–6 per group; p < 0.05. The procedure:
Male rats aged 2–3 months were individually housed in originally designed cylindrical chambers (30 cm ϕ, H30 cm). Food was given ad libitum from slits of stainless pellet server placed 22 cm above the floor. During the RF, rats were fed with fatty food paste composed of 50% nutrient commixture chow powder, 20% soybean oil, and 30% water on a glass dish. Following removal of the dish, sterilized saline (1 ml/kg body weight) were i.p. injected. Leftover food paste was weighed after RF to calculate daily intake. Rats were acclimatized to this environment for 4 days. On day 5 of RF, saline or LGM (2 or 10 mg/kg body weight) dissolved in saline was injected. Three hours after the drug injection, rats were re-fed with regular chow in a previously setup pellet server. A touch sensing probe (Elekit PS-306) was connected to the pellet server. Because the bottom of the pellet server was placed 22 cm above the floor, purposeful food access behavior, but not general locomotor activities, was counted using this system. The ON/OFF signals from the sensor were fed into a laptop computer through a photo-coupler isolated digital I/O card (Contec Inc. PIO-16/16L) and automatically counted at 3-min intervals by software written by M.I.

Assay [4] concerns c-Fos and pSTAT3 in the VMN. In words: Nuclear c-Fos and pSTAT3 in VMN after i.p. LGM. It counts as in vivo, rat. The settings on record: LGM 10 mg/kg i.p., 3 h, after RF, versus saline. The method, then:
as §4, §2, §5

The subject of the next assay is rats. Conditions: sub-threshold CCK and leptin, individually no effect on feeding; cited from earlier work. An excerpt:
(§6) Also, the effect of CCK on satiety control is attenuated in Zucker fa/fa rats lacking functional leptin receptors. In addition, other evidence implicated that leptin-mediated satiety-controlling systems may strongly interact with CCK systems[18],[50]–[54]. For example, c-Fos expression in oxytocin neurons in the hypothalamic paraventricular nucleus is elevated by leptin administration, and these neurons have axons tha ...

The next assay concerns mice. Conditions: sub-threshold CCK and leptin, individually no effect on feeding; cited from earlier work.
Text: as §6

Assay [5] concerns Zucker fa/fa rats lacking functional leptin receptors. The settings on record: cited from earlier work.
Text: as §6

The test system of assay [6] is meal frequency / meal size. Conditions: CCK; cited from earlier work. An excerpt: Although CCK and leptin have been commonly described as satiety controlling peptides, their differential roles have also been highlighted. […] Among the wide variety of intracellular signalling machineries linked to ObRb, it is still uncertain which pathway(s) is/are linked to what type of satiety controls. pSTAT3-ir is used as a genera ...

Entries after “also recorded” stand apart in the source; their conditions may differ.

Consider `N#C/C(=C/c1ccc(O)c(O)c1)C(=O)NCc1ccccc1` [AG490], for which the “nuclear pSTAT3-ir with JAK inhibitor” value in the assay on pSTAT3 in C6-ObRb cells (AG490 1 µM from 15 min prior to leptin stimulation until fixation, 30 images/three dishes, p < 0.01) was “significantly reduced nuclear pSTAT3-ir below the level of un-stimulated controls; also recorded: blocked leptin-induced nuclear pSTAT3 elevation”. The “cytosolic pSTAT3 signal with kinase inhibitor” value in the assay with pSTAT3 in C6-ObRb cells was “cytosolic pSTAT3 signal was not elevated”. Also, the “effect of JAK inhibitor on leptin amplification of CCK-8s-induced Ca2+ mobilization” value with wild-type C6 cells (AG490 1 μM, 10 min, leptin pre-treatment, CCK-8s, n = 48/three dishes) is “leptin failed to amplify the CCK-8s-induced Ca^2+ mobilization; also recorded: significantly reduced leptin action for CCK-8s-induced Ca^2+ mobilization”.
Take CCK-4: the “C6 cells displaying Ca2+ transients” value in assay [1] was “approximately 20%”.
In the case of `CC(C)Oc1cccc(-n2c(CCc3c[nH]c4ccc(Br)cc34)nc3ccccc3c2=O)c1` [LY225910], the “reduction of CCK-8s-induced Ca2+ transients” value in assay [2] was “almost completely reduced”.
For `Nc1ncnc2c1ncn2[C@@H]1O[C@H](COP(=O)(O)OP(=O)(O)OP(=O)(O)O)[C@@H](O)[C@H]1O` [ATP], the “Ca2+ mobilization, positive control” value in the assay on wild-type C6 cells (ATP 100 µM at the end of experiment) was “High Ca^2+ mobilization”.
As for `O=c1cc(N2CCOCC2)oc2c(-c3ccccc3)cccc12` [LY294002], the “cytosolic pSTAT3 signal with kinase inhibitor” value in the assay with pSTAT3 in C6-ObRb cells was “cytosolic pSTAT3 signal was not elevated”. Also, the “nuclear pSTAT3-ir with PI3K inhibitor” value with pSTAT3 in C6-ObRb cells (LY294002 50 µM from 15 min prior to leptin stimulation until fixation, 30 images/three dishes, p < 0.01) is on record as “significantly reduced nuclear pSTAT3-ir below the level of un-stimulated controls; also recorded: blocked leptin-induced nuclear pSTAT3 elevation”. Moreover, the “effect of PI3K inhibitor on (leptin-amplified) CCK-8s-induced Ca2+ mobilization” value in the assay on wild-type C6 cells (LY294002 50 µM, 10 min, leptin pre-treatment, CCK-8s, n = 45/three dishes) is recorded as “significantly inhibited CCK-8s-induced Ca^2+ mobilization; also recorded: significantly reduced leptin action for CCK-8s-induced Ca^2+ mobilization”.
In the case of `CCCCCN(CCCCC)C(=O)C(CCC(=O)O)NC(=O)c1ccc(Cl)c(Cl)c1` (stereo not shown) [LGM, lorglumide], the “effect of CCK-1 antagonist on leptin-induced Ca2+ responses” value in the assay on VMN cells is listed as “reduced leptin-induced Ca^2+ responses”. Also, in assay [3], the “number of cells displaying c-Fos-ir, ARC” value was “failed to modulate the number of cells displaying c-Fos-ir”. The “number of cells displaying pSTAT3-ir, ARC” value in assay [3] (14 images in four rats, p < 0.01) is reported as “increased number of cells displaying pSTAT3-ir”. In the assay on CCK-1 receptor, the “food access frequency at the onset of re-feeding relative to saline control” value was determined as 1.8 times. Besides, the “number of cells displaying c-Fos-ir, VMN” value in assay [4] (18 images in four rats, p < 0.05) was “significantly decreased the number of cells displaying c-Fos-ir”. Besides, the “number of cells displaying pSTAT3-ir, VMN” value in assay [4] (P < 0.05) was “increased number of cells displaying pSTAT3-ir”.
In the case of cholecystokinin [CCK], the “food intake, co-administration with leptin” value in the assay on rats and in the assay on mice was “dramatically reduced food intake” each time. In addition, in assay [5], the “effect of CCK on satiety control in Zucker fa/fa rats” value is on record as “attenuated”. Further, in assay [6], the meal frequency result was “reduce meal frequency”.
